From patent US20210369721A1, “SUBLINGUAL FORMULATION FOR HYPOTENSION AND SYNCOPE” (priority 2020, published 2021)
“And” between values parts separate entries of the source, which are not always exact repeats. Identical values can stand only once. Blank lines part the entries; values can stand above or below the compound they belong to.

Columns and labels:
[1] = test system: impending syncope (VVS) patients; conditions: cited from earlier work
[2] = cited from earlier work
[3] = test system: normal, healthy adults; assay: Phase I CPC sublingual gel: blood pressure and heart rate; type: in vivo, human; conditions: 15-120 minutes
Experimental: Study Methods: The design was an open label, phase I, dose escalation, pharmacokinetic study of a novel gel formulation of capsaicin, phenylephrine, and caffeine administered sublingually to normal, healthy adults.
Dosing and Administration: The product was expressed as fast as feasible from the oral syringe sublingually. The subject was asked to have the gel reside under the tongue for 1 minute before it was swallowed and the mouth was rinsed with water. Multiple rinses were allowed.
Of the three active components of the sublingual dosage, the dose of phenylephrine was the focus of dose escalation.
Study Drug Administration: The subject were asked to sit in a chair that allowed access to their mouth and subsequent blood sampling and continuous BP and HR monitoring. After 15-minute rest, vital signs were taken pre-dose, and SBP had to be ≤130 mmHg in order for dose to be given. If SBP>130 mmHg, the blood pressure was checked again in 15 minutes. If the repeat measurement had SBP≤130 mmHg, the first dose of CPC was given.
The study nurse delivered the appropriate dose to the subject using an oral syringe sublingually. The subject allowed the gel to reside under the tongue for 1 minute before the gel was swallowed and the mouth was rinsed with water that was swallowed. Multiple rinses were allowed as was water ad lib. […]

[4] = clinical; conditions: human, in vivo
Experimental: Pharmacokinetic Sampling: Blood samples were collected via the venous catheter with appropriate pre- and post-sample flushing. If the indwelling venous catheter patency was lost, the phlebotomist or nurse attempted to replace it, if possible. Separate needle sticks could be done for the blood collection.
Samples were collected in 6 mL heparinized tubes at the following time points: Pre-dose, 30 seconds, 1, 2, 5, 15, 30, 45, 60, 90, 120 min, and 3, 4, 6, 8, 12, 24* hours
The lithium heparin tube and 1 K2EDTA tube (capsaicin sample) were immediately placed on ice or refrigerated. […] All blood samples were centrifuged as soon as possible after clotting in a refrigerated centrifuge. The plasma from each tube was equally distributed between 2 polypropylene tubes, labeled and promptly stored at −80° C. until thawed for analysis.

[5] = test system: healthy subjects and 1 patient with a history of VVS; assay: Study 2: Capsaicin alone, tilt table testing; type: in vivo, human
Experimental: In a second study, we tested the effect of Capsaicin alone (50 μL Capsaicin 0.5%) on HR and BP in 3 healthy subjects (1 woman and 2 men mean age 35±18 years) and in 1 patient with a history of VVS during tilt table testing (Table 1).

[6] = target: VR1receptor; conditions: micro molar range; cited from earlier work
[7] = test system: impending VVS; conditions: cited from earlier work
[8] = Caffeine plasma level after sublingual caffeine+capsaicin in ethanol; type: in vivo, human; conditions: 5 cases; sublingual caffeine 200 mg + capsaicin in ethanol
[9] = test system: blood donors; conditions: 125 or 250 mg; 95% CI 0.21-0.85; p=0.02; cited from earlier work
[10] = test system: A2 adenosine receptor; conditions: cited from earlier work
[11] = single dose of 200-250 mg, cited from earlier work
[12] = healthy subjects, individual subjects

- PE blood concentration in the current study [4]: 1 to 2 ng/mL
- concentration at 15 min [4]: ~1 ng/mL
Structure (SMILES): CNC[C@H](O)c1cccc(O)c1 [PE, phenylephrine]
- Effect on vagally-induced bradycardia ([1]; in vivo): unable to counteract the vagally-induced bradycardia
- Effect on blood pressure ([1]; intra-atrial bolus 1 mg/1 ml at impending syncope): immediate marked increase in blood pressure
- Effect on VVS ([1]; intra-atrial bolus 1 mg/1 ml): interrupted VVS in most patients
- Time to effect ([1]; mostly): ≤ 20 s
- Mean increase in SBP ([2]; PE blood concentration of 20 nM, 3 mcg/L or 3 ng/ml): 3 mmHg
- Increase in systolic BP, mean ([2]; PE concentration of 9 mcg/L): 11 mmHg
- Increase in systolic BP, range ([2]; PE concentration of 9 mcg/L): 6-20 mmHg
- Speculated contribution of PE to SBP elevation [3]: 1-2 mmHg

Structure (SMILES): COc1cc(CNC(=O)CCCC/C=C/C(C)C)ccc1O [Capsaicin, 8-methyl-N-vanillyl-trans 6-nonenamide]
- Symptoms after drug ([5]; 1 patient with VVS): no
- HR after Drug ([5]; 1 patient with VVS, HR at time 0 56): 80 bpm
- HR after Drug, Mean ([5]; Mean of 3 healthy subjects, HR at time 0 mean 78): 96 bpm
- Effect on SBP ([5]; healthy subjects, conclusion): able to increase SBP
- Symptoms after drug [5, 12]: no
- Effect on loss of consciousness ([5]; one VVS patient, conclusion): prevent loss of consciousness
- Outcome of tilt test ([5]; patient with VVS): experienced only presyncope

Structure (SMILES): CCNCC(O)c1cccc(O)c1 (centres unmarked) [etilefrine]
- Cases in which impending VVS was aborted ([7]; intravenous injection, 20% with placebo): 87%
- Time to effect ([7]; mostly): ≤ 20 s

Structure (SMILES): Cn1c(=O)c2c(ncn2C)n(C)c1=O [Caffeine]
- Start of increase in caffeine blood concentration [8]: 30 s
- Speculated contribution of Caffeine to SBP elevation [3]: 1-2 mmHg
- RR of occurrence of VVRs versus placebo [9]: 0.42
- Affinity [10]: 9 µM
- Increase in SBP ([11]; within 30 minutes): 3-14 mmHg
- Time of maximal increase in SBP [11]: 60 to 120 min
